{"source": "paper PMC5073354", "about": "“Direct and indirect mechanisms of KLK4 inhibition revealed by structure and dynamics” (Scientific Reports, 2016)", "origin": "cited, not measured here", "key": {"[1]": {"tested_on": "KLK4", "from_the_text": "Since the trypsin-SFTI-1 and matriptase-SFTI-1 protease/inhibitor complexes have been characterized by X-ray crystallography, a structural context is available to dissect relative potencies. […] To examine the interaction between KLK4 and inhibitor we determined the X-ray crystal structure of a KLK4-SFTI-1 complex to 1.0 Å resolution. The inhibitor structure is well-resolved except for missing density in the backbone of Pro13 and the side chain of Asp14. The contact β-sheet of SFTI-1 has multiple interactions with the KLK4 active site, including the P1 Lys5 inserting into the S1 pocket of KLK4 (Fig. 1B). || When comparing the structure of SFTI-1 in the context of trypsin, matriptase and KLK4, differences in the interface correlate to the potency of inhibition. […] Comparison of the structures provides arguments to support this lowered inhibition. SFTI-1 has less buried surface area and fewer interactions with KLK4 than with either trypsin or matriptase (Table S1). SFTI-1 behaves as a Laskowski inhibitor, interacting with its targets following the classi ... || (+ 1 further places)"}, "[2]": {"tested_on": "trypsin", "from_the_text": "(§1) Since the trypsin-SFTI-1 and matriptase-SFTI-1 protease/inhibitor complexes have been characterized by X-ray crystallography, a structural context is available to dissect relative potencies."}, "[3]": {"tested_on": "matriptase", "from_the_text": "as §1"}, "[4]": {"tested_on": "KLK4", "details": "ion binding to residues more than 20 Å from the active site", "from_the_text": "To gain more insight into this mode of inhibition, we crystallized KLK4 under identical conditions but in the absence of PABA inhibitor."}, "[5]": {"tested_on": "Factor VIIa", "details": "FVIIa not bound to tissue factor", "from_the_text": "Kallikreins are proteases that perform catalysis in organs with high zinc concentrations. The KLK4 inactivation by nickel described in this work is also proposed to apply to zinc binding to the same […]/[…] site[23]. A molecular understanding of zinc-mediated inhibition of members of the kallikrein family is emerging with three types of inhibition seen[41]. […] This is proposed to inhibit activity by […][42]. Second, zinc binding to residues in loop IV (also known ..."}, "[6]": {"tested_on": "KLK4", "details": "library of tetrapeptide pNA substrates with invariant P1 Arg", "from_the_text": "We previously tested the amidolytic activity of KLK4 against a focused library of synthetic tetrapeptide substrates with an invariant P1 Arg[13]. […] To investigate the structural basis for increased potency, we solved the crystal struct ..."}}}
{"compound": "1GRCTKSIPPICFPD14 (bicyclic or more) [SFTI-1, sunflower trypsin inhibitor-1, 14 amino acid bicyclic peptide; backbone cyclization coupled with an intramolecular disulfide linkage]", "values": [{"measurement": "rank of potency, KLK4 versus trypsin and matriptase (in words)", "setting": "[1]; discrepancy in reported SFTI-1 inhibition constants (ref 12, 26, 27)", "result": "KLK4 is thought to be the least potently inhibited"}, {"measurement": "inhibition of KLK4 (in words)", "setting": "[1]; proteolytic activity of KLK4", "result": "potently inhibits KLK4 proteolytic activity"}, {"measurement": "inhibition of trypsin (in words)", "setting": "[2]", "result": "inhibit KLK4 in addition to trypsin and matriptase"}, {"measurement": "inhibition of matriptase (in words)", "setting": "[3]", "result": "inhibit KLK4 in addition to trypsin and matriptase"}]}
{"compound": "[Ni+2]", "note": "[Ni^2+, nickel]", "values": [{"measurement": "inhibition of KLK4 by metal (in words)", "setting": "[4]", "result": "KLK4 can be inhibited"}]}
{"compound": "[Ca+2]", "note": "[calcium]", "values": [{"measurement": "reversal of zinc inhibition of FVIIa (in words)", "setting": "[5]; zinc-inhibited", "result": "can reverse this inhibition with calcium"}]}
{"compound": "[Zn+2]", "note": "[zinc]", "values": [{"measurement": "inhibition of FVIIa by zinc (in words)", "setting": "[5]", "result": "is inhibited by zinc"}]}
{"compound": "FVQR-p-nitroanilide [FVQR-p-nitroanilide (pNA)]", "values": [{"measurement": "amidolytic activity of KLK4 for substrate (in words)", "setting": "[6]", "result": "highest activity"}]}
